# PubChem BioAssay AID2060603 (Molecular Pharmacology Branch, DTP, NCI, 2025)
# Tested on: 422866-222-R5-J1-PDC spheroid viability
# Experiment: Anticancer human tumor 422866-222-R5-J1-PDC patient-derived pancreatic adenocarcinoma cell line growth inhibition [CLK]
# Conditions: spheroids with HUVEC and MSC; for IC50: curve of first compound; for viability, T/C: stronger effect = lower value
# In short: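 Multi-cell-type spheroids combined patient-derived tumor cells with HUVEC endothelial cells and human mesenchymal stem cells. Paired agents were dosed in half-log steps down from about clinical Cmax, or from 10 microM where Cmax was unknown.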
# 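Also: spheroids exposed to agents for seven days before readout.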
smiles,measurement,setting,value
C=CC(=O)Nc1cc(Nc2nccc(-c3cn(C)c4ccccc34)n2)c(OC)cc1N(C)CCN(C)C + CN1CCN(c2cc(C(=O)Nc3cc4cc(-c5cnn(C)c5)ccc4cn3)ccn2)CC1,IC50,second compound 0.0316 µM,> 300 nM
same,IC50,second compound 0.1 µM,> 300 nM
same,IC50,second compound 0.316 µM,> 300 nM
same,IC50,second compound 1 µM,< 0.949 nM
same,IC50,second compound 3.16 µM,< 0.949 nM
same,IC50,second compound 10 µM,< 0.949 nM
same,"viability, T/C","second compound 0.0316 µM, first compound 0.000949 µM",122%
same,"viability, T/C","second compound 0.0316 µM, first compound 0.003 µM",103%
same,"viability, T/C","second compound 0.0316 µM, first compound 0.00949 µM",114%
same,"viability, T/C","second compound 0.0316 µM, first compound 0.03 µM",96%
same,"viability, T/C","second compound 0.0316 µM, first compound 0.0949 µM",93.9%
same,"viability, T/C","second compound 0.0316 µM, first compound 0.3 µM",77.8%
same,"viability, T/C","second compound 0.1 µM, first compound 0.000949 µM",133%
same,"viability, T/C","second compound 0.1 µM, first compound 0.003 µM",129%
same,"viability, T/C","second compound 0.1 µM, first compound 0.00949 µM",107%
same,"viability, T/C","second compound 0.1 µM, first compound 0.03 µM",105%
same,"viability, T/C","second compound 0.1 µM, first compound 0.0949 µM",94.2%
same,"viability, T/C","second compound 0.1 µM, first compound 0.3 µM",93.2%
same,"viability, T/C","second compound 0.316 µM, first compound 0.000949 µM",94%
same,"viability, T/C","second compound 0.316 µM, first compound 0.003 µM",87.2%
same,"viability, T/C","second compound 0.316 µM, first compound 0.00949 µM",93.7%
same,"viability, T/C","second compound 0.316 µM, first compound 0.03 µM",83.9%
same,"viability, T/C","second compound 0.316 µM, first compound 0.0949 µM",87.6%
same,"viability, T/C","second compound 0.316 µM, first compound 0.3 µM",79%
same,"viability, T/C","second compound 1 µM, first compound 0.000949 µM",29.3%
same,"viability, T/C","second compound 1 µM, first compound 0.003 µM",36.8%
same,"viability, T/C","second compound 1 µM, first compound 0.00949 µM",35.3%
same,"viability, T/C","second compound 1 µM, first compound 0.03 µM",29.3%
same,"viability, T/C","second compound 1 µM, first compound 0.0949 µM",30.8%
same,"viability, T/C","second compound 1 µM, first compound 0.3 µM",23.7%
same,"viability, T/C","second compound 3.16 µM, first compound 0.000949 µM",9.51%
same,"viability, T/C","second compound 3.16 µM, first compound 0.003 µM",9.88%
same,"viability, T/C","second compound 3.16 µM, first compound 0.00949 µM",10.5%
same,"viability, T/C","second compound 3.16 µM, first compound 0.03 µM",10.5%
same,"viability, T/C","second compound 3.16 µM, first compound 0.0949 µM",9.87%
same,"viability, T/C","second compound 3.16 µM, first compound 0.3 µM",9.45%
same,"viability, T/C","second compound 10 µM, first compound 0.000949 µM",2.62%
same,"viability, T/C","second compound 10 µM, first compound 0.003 µM",2.53%
same,"viability, T/C","second compound 10 µM, first compound 0.00949 µM",2.32%
same,"viability, T/C","second compound 10 µM, first compound 0.03 µM",1.8%
same,"viability, T/C","second compound 10 µM, first compound 0.0949 µM",1.99%
same,"viability, T/C","second compound 10 µM, first compound 0.3 µM",1.66%
Nc1ccccc1NC(=O)c1ccc(CNC(=O)OCc2cccnc2)cc1 + CN1CCN(c2cc(C(=O)Nc3cc4cc(-c5cnn(C)c5)ccc4cn3)ccn2)CC1,IC50,second compound 0.0316 µM,> 10000 nM
same,IC50,second compound 0.1 µM,> 10000 nM
same,IC50,second compound 0.316 µM,2380 nM
same,IC50,second compound 1 µM,< 31.6 nM
same,IC50,second compound 3.16 µM,< 31.6 nM
same,IC50,second compound 10 µM,< 31.6 nM
same,"viability, T/C","second compound 0.0316 µM, first compound 0.0316 µM",121%
same,"viability, T/C","second compound 0.0316 µM, first compound 0.1 µM",137%
same,"viability, T/C","second compound 0.0316 µM, first compound 0.316 µM",121%
same,"viability, T/C","second compound 0.0316 µM, first compound 1 µM",114%
same,"viability, T/C","second compound 0.0316 µM, first compound 3.16 µM",75.8%
same,"viability, T/C","second compound 0.0316 µM, first compound 10 µM",60.4%
same,"viability, T/C","second compound 0.1 µM, first compound 0.0316 µM",135%
same,"viability, T/C","second compound 0.1 µM, first compound 0.1 µM",118%
same,"viability, T/C","second compound 0.1 µM, first compound 0.316 µM",121%
same,"viability, T/C","second compound 0.1 µM, first compound 1 µM",96.6%
same,"viability, T/C","second compound 0.1 µM, first compound 3.16 µM",74.5%
same,"viability, T/C","second compound 0.1 µM, first compound 10 µM",62.6%
same,"viability, T/C","second compound 0.316 µM, first compound 0.0316 µM",106%
same,"viability, T/C","second compound 0.316 µM, first compound 0.1 µM",95.5%
same,"viability, T/C","second compound 0.316 µM, first compound 0.316 µM",91.1%
same,"viability, T/C","second compound 0.316 µM, first compound 1 µM",62.5%
same,"viability, T/C","second compound 0.316 µM, first compound 3.16 µM",46.9%
same,"viability, T/C","second compound 0.316 µM, first compound 10 µM",19.5%
same,"viability, T/C","second compound 1 µM, first compound 0.0316 µM",28.4%
same,"viability, T/C","second compound 1 µM, first compound 0.1 µM",28.6%
same,"viability, T/C","second compound 1 µM, first compound 0.316 µM",25.6%
same,"viability, T/C","second compound 1 µM, first compound 1 µM",16.1%
same,"viability, T/C","second compound 1 µM, first compound 3.16 µM",4.32%
same,"viability, T/C","second compound 1 µM, first compound 10 µM",5.2%
same,"viability, T/C","second compound 3.16 µM, first compound 0.0316 µM",8.75%
same,"viability, T/C","second compound 3.16 µM, first compound 0.1 µM",8.34%
same,"viability, T/C","second compound 3.16 µM, first compound 0.316 µM",4.74%
same,"viability, T/C","second compound 3.16 µM, first compound 1 µM",4.04%
same,"viability, T/C","second compound 3.16 µM, first compound 3.16 µM",3.26%
same,"viability, T/C","second compound 3.16 µM, first compound 10 µM",8.29%
same,"viability, T/C","second compound 10 µM, first compound 0.0316 µM",2.62%
same,"viability, T/C","second compound 10 µM, first compound 0.1 µM",1.81%
same,"viability, T/C","second compound 10 µM, first compound 0.316 µM",1.37%
same,"viability, T/C","second compound 10 µM, first compound 1 µM",1.01%
same,"viability, T/C","second compound 10 µM, first compound 3.16 µM",2.34%
same,"viability, T/C","second compound 10 µM, first compound 10 µM",4.45%
